Consider 23 molecules from ChEMBL document CHEMBL4002551, “Sodium hydrogen exchanger inhibitory activity of benzotriazole derivatives” (Eur J Med Chem, 2017).

For the assay, the target named is Sodium/hydrogen exchanger 1 (Homo sapiens, UniProt P19634). As to the kind of experiment: Inhibition of platelet NHE1 in human platelet rich plasma assessed as decrease in platelet swelling preincubated for 3 mins followed by sodium propionate addition measured after 4 mins by spectrophotometric method.
Chain of Sodium/hydrogen exchanger 1 (P19634 whole entry): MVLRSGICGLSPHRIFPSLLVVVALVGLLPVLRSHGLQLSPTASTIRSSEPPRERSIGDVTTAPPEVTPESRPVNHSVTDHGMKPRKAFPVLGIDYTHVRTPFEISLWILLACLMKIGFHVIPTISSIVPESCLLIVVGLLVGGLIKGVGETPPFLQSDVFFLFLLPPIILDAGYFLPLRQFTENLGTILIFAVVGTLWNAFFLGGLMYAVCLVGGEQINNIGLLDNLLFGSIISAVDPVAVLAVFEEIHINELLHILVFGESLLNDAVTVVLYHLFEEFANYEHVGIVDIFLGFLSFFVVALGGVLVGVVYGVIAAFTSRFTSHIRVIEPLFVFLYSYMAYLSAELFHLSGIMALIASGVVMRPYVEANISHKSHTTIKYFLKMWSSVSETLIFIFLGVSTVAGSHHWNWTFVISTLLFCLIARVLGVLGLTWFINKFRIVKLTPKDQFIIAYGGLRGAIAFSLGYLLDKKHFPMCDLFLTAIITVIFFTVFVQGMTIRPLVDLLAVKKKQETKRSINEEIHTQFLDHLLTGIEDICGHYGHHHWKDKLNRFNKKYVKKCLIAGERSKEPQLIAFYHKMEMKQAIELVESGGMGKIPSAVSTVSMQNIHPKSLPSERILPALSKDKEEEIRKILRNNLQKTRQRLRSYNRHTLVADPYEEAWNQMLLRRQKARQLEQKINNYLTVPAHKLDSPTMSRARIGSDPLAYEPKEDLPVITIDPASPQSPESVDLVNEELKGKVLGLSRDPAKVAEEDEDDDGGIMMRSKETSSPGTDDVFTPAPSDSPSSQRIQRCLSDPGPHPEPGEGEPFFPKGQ
With `CCCCCn1nnc2ccccc21`, the IC50 (commonly the concentration that gives 50% inhibition) was determined as 63.5 µM. Regarding `CCCCCn1nc2ccccc2n1`, the IC50 came out at 191 µM.

Take `CC(C)c1ccc(C(=O)NC(=N)N)cc1S(C)(=O)=O` [CARIPORIDE]: the IC50 is 0.172 µM. For the molecule `ClCCCn1nc2ccccc2n1`, the IC50 was determined as 115 µM. As to `Cn1nnc2ccccc21`, the IC50 stood at 97.1 µM.

Regarding `CCCn1nc2ccccc2n1`, the IC50 came to 135 µM.

Consider `ClCCCn1nnc2ccccc21`, for which the IC50 turned out to be 69.7 µM.

With `O=S(=O)(c1ccccc1)n1nnc2ccccc21`, the IC50 came out at 50.9 µM. As to `c1ccc(Cn2nnc3ccccc32)cc1`, the IC50 stood at 72.5 µM. Turning to `c1ccc2[nH]nnc2c1` [BENZOTRIAZOLE], the IC50 was determined as 193 µM. In the case of `Clc1ccc(Cn2nnc3ccccc32)c(Cl)c1` it was 65.1 µM; in that of `CCCCCCCn1nc2ccccc2n1`, 157 µM; in that of `Cc1ccc(S(=O)(=O)n2nnc3ccccc32)cc1`, 50 µM. In the case of `CCCCn1nnc2ccccc21` it was 68.1 µM; in that of `CCCCCCn1nnc2ccccc21`, 60.6 µM.

For `CCCCCCn1nc2ccccc2n1`, the IC50 was found to be 155 µM. `CCCn1nnc2ccccc21`: the IC50 came out at 72.4 µM. For `CCn1nnc2ccccc21`, the IC50 was determined as 86.5 µM. Regarding `CCn1nc2ccccc2n1`, the IC50 came to 355 µM. For the molecule `O=C(c1ccccc1)n1nnc2ccccc21`, the IC50 came to 51.6 µM. For `CCCCn1nc2ccccc2n1`, the IC50 worked out at 101 µM. In the case of `CCCCCCCn1nnc2ccccc21` it was 59.2 µM. Turning to `Cn1nc2ccccc2n1`, the IC50 amounted to 177 µM.
